Test results published in ChEMBL document CHEMBL1136509, “Structure-activity relationships of novel anti-malarial agents: part 5. N-(4-acylamino-3-benzoylphenyl)-[5-(4-nitrophenyl)-2-furyl]acrylic acid amides” (Bioorg Med Chem Lett, 2003).

Tested on: Plasmodium falciparum
Test: Inhibitory activity against Plasmodium falciparum Dd2 in erythrocytes by semiautomated micro dilution
Type: functional, organism-based

IC50 [nM] | Compound
1400 | O=C(/C=C/c1ccc(-c2ccc([N+](=O)[O-])cc2)o1)Nc1ccc(NC(=O)Cc2ccc([N+](=O)[O-])cc2)c(C(=O)c2ccccc2)c1
650 | Cc1ccccc1CC(=O)Nc1ccc(NC(=O)/C=C/c2ccc(-c3ccc([N+](=O)[O-])cc3)o2)cc1C(=O)c1ccccc1
770 | O=C(/C=C/c1ccc(-c2ccc([N+](=O)[O-])cc2)o1)Nc1ccc(NC(=O)c2cccc3ccccc23)c(C(=O)c2ccccc2)c1
230 | O=C(/C=C/c1ccc(-c2ccc([N+](=O)[O-])cc2)o1)Nc1ccc(NC(=O)Cc2ccc(F)cc2)c(C(=O)c2ccccc2)c1
5500 | O=C(/C=C/c1ccc(-c2ccc([N+](=O)[O-])cc2)o1)Nc1ccc(NC(=O)C(c2ccccc2)c2ccccc2)c(C(=O)c2ccccc2)c1
47 | O=C(/C=C/c1ccc(-c2ccc([N+](=O)[O-])cc2)o1)Nc1ccc(NC(=O)Cc2ccc(C(F)(F)F)cc2)c(C(=O)c2ccccc2)c1
210 | O=C(/C=C/c1ccc(-c2ccc([N+](=O)[O-])cc2)o1)Nc1ccc(NC(=O)Cc2ccc3ccccc3c2)c(C(=O)c2ccccc2)c1
1000 | O=C(/C=C/c1ccc(-c2ccc([N+](=O)[O-])cc2)o1)Nc1ccc(NC(=O)Cc2ccc(-c3ccccc3)cc2)c(C(=O)c2ccccc2)c1
70 | O=C(/C=C/c1ccc(-c2ccc([N+](=O)[O-])cc2)o1)Nc1ccc(NC(=O)Cc2ccc(Br)cc2)c(C(=O)c2ccccc2)c1
1000 | O=C(/C=C/c1ccc(-c2ccc([N+](=O)[O-])cc2)o1)Nc1ccc(NC(=O)Cc2ccccc2Br)c(C(=O)c2ccccc2)c1
1000 | O=C(/C=C/c1ccc(-c2ccc([N+](=O)[O-])cc2)o1)Nc1ccc(NC(=O)Cc2ccccc2C(F)(F)F)c(C(=O)c2ccccc2)c1
250 | O=C(/C=C/c1ccc(-c2ccc([N+](=O)[O-])cc2)o1)Nc1ccc(NC(=O)Cc2cccc3ccccc23)c(C(=O)c2ccccc2)c1
500 | CC(C(=O)Nc1ccc(NC(=O)/C=C/c2ccc(-c3ccc([N+](=O)[O-])cc3)o2)cc1C(=O)c1ccccc1)c1ccccc1 (stereo not given)
2500 | O=C(/C=C/c1ccc(-c2ccc([N+](=O)[O-])cc2)o1)Nc1ccc(NC(=O)c2ccc(Cl)cc2)c(C(=O)c2ccccc2)c1
150 | Cc1cccc(CC(=O)Nc2ccc(NC(=O)/C=C/c3ccc(-c4ccc([N+](=O)[O-])cc4)o3)cc2C(=O)c2ccccc2)c1
320 | COc1ccc(CC(=O)Nc2ccc(NC(=O)/C=C/c3ccc(-c4ccc([N+](=O)[O-])cc4)o3)cc2C(=O)c2ccccc2)cc1
270 | O=C(/C=C/c1ccc(-c2ccc([N+](=O)[O-])cc2)o1)Nc1ccc(NC(=O)Cc2ccccc2)c(C(=O)c2ccccc2)c1
2500 | O=C(/C=C/c1ccc(-c2ccc([N+](=O)[O-])cc2)o1)Nc1ccc(NC(=O)c2ccc3ccccc3c2)c(C(=O)c2ccccc2)c1
3000 | O=C(/C=C/c1ccc(-c2ccc([N+](=O)[O-])cc2)o1)Nc1ccc(NC(=O)c2ccccc2)c(C(=O)c2ccccc2)c1

Compound | IC50 [nM]
O=C(/C=C/c1ccc(-c2ccc([N+](=O)[O-])cc2)o1)Nc1ccc(NC(=O)Cc2ccc(Cl)cc2)c(C(=O)c2ccccc2)c1 | 64
